# Assay results as given in PubChem BioAssay AID1996.
# Details: buffer; pH 7.4; 200.0 µM
row,SMILES,solubility kinetic
1,O=C1N(c2ccccc2)c2ccccc2C1(O)C(F)(F)F (stereo not given),> 44 µg/mL
2,COc1ccccc1N(CC(=O)N1CCOCC1)S(C)(=O)=O,> 49.3 µg/mL
3,Cc1noc(C)c1COc1ccc(C(=O)N2CCC(C(N)=O)CC2)cc1,> 53.6 µg/mL
4,O=C(NCCCSc1ccccc1)c1ccc(=O)[nH]c1,> 43.3 µg/mL
5,O=S(=O)(c1ccc(F)c(F)c1)N1CCC2(CC1)OCCO2,> 47.9 µg/mL
6,CN(CC(=O)c1c(N)n(C)c(=O)n(C)c1=O)c1ccccc1,> 45.3 µg/mL
7,COc1ccc(NC(=O)NCCN2CCCCC2)cc1,33.9 µg/mL
8,CC(=O)Nc1ccc(S(=O)(=O)N[C@@H](C)C(=O)OCC(=O)c2ccc[nH]2)cc1,42.2 µg/mL
9,CCN(CC)C(=O)c1cc(Cl)ccn1,26.8 µg/mL
10,C/C(=N/OC(=O)c1ccc(C)cc1)C(=O)c1ccc(Br)cc1,33.9 µg/mL
11,CC(C)N1CCN(Cc2nc3c(s2)CCCC3)CC1CCO (stereo not given),41.4 µg/mL
12,CC(NC(=S)N1CCN(c2ccccc2)CC1)c1ccccc1 (stereo not given),0.4 µg/mL
13,COc1ccccc1NS(=O)(=O)c1ccc(C(=O)NCc2ccco2)cc1,53 µg/mL
14,N#CC(C#N)=CNc1cccnc1,> 25.5 µg/mL
15,CN1CCCN(C(=O)COc2ccccc2)CC1,> 37.2 µg/mL
16,COc1cc(C(=O)NC23CC4CC(CC(C4)C2)C3)cc(OC)c1OC,< 0.7 µg/mL
17,Cc1ccc(C(=O)NCCN2CCOCC2)cc1[N+](=O)[O-],> 44 µg/mL
18,CC(C)CC(C(=O)Nc1ccccc1)N1C(=O)C2C3C=CC(C3)C2C1=O (stereo not given),> 52.9 µg/mL
19,NC(=O)COC(=O)/C=C/c1ccccc1[N+](=O)[O-],33.1 µg/mL
20,CCCc1cnc(N2CCN(C(=O)c3c(-c4ccccc4)noc3C)CC2)nc1,40.7 µg/mL

row,SMILES,solubility kinetic
1,CC(=O)Oc1ccc(NC(=O)Cc2ccccc2)c(C(=O)O)c1,> 47 µg/mL
2,CC(NC(=O)C12CC3CC(CC(O)(C3)C1)C2)c1ccccc1 (stereo not given),> 44.9 µg/mL
3,O=[N+]([O-])c1cc([N+](=O)[O-])c2nonc2c1Nc1ccccc1O,> 47.6 µg/mL
4,COc1ccc(S(=O)Cc2ccc(C(=O)NC3CC3)o2)cc1 (stereo not given),> 47.9 µg/mL
5,Cc1nc(SCC(=O)NCCN2C(=O)CSC2=O)nc(C)c1C,> 53.2 µg/mL
6,c1ccc2c3c(c(CN4CCCC4)cc2c1)COC3,> 38 µg/mL
7,O=C(COC(=O)/C=C/c1cccc(Cl)c1)NCc1cccs1,6.1 µg/mL
8,CC1=NN(C(N)=S)C(C)(C)C1,> 25.7 µg/mL
9,CN(CC(=O)Nc1ccc(F)cc1[N+](=O)[O-])C1CCS(=O)(=O)C1 (stereo not given),> 51.8 µg/mL
10,O=c1c2ccccc2nc(/C=C/c2ccccc2O)n1-c1ccccc1O,30.8 µg/mL
11,CN(C(=O)CSc1nc2scc(-c3ccccc3)c2c(=O)[nH]1)c1ccccc1,11.2 µg/mL
12,COc1cccc(N(C(C)=O)C2=NCCCS2)c1,> 39.7 µg/mL
13,O=C(O)CC1(CC(=O)NCc2ccc(C(F)(F)F)cc2)CCCCC1,> 53.6 µg/mL
14,C=C(c1ccccc1C)[n+]1ccccc1,22.1 µg/mL
15,CCCC(=O)NC(c1ccc(C)cc1)c1ccc2cccnc2c1O (stereo not given),1.2 µg/mL
16,COc1ccccc1NC(=S)N(C(C)C)C(C)c1ccccn1 (stereo not given),37.8 µg/mL
17,COC(=O)COc1cccc2c(=O)n(CC(=O)N3CCC(C)CC3)ccc12,> 55.9 µg/mL
18,COc1ccc(NC(=O)c2cc(-c3ccccc3)on2)cc1,< 0.3 µg/mL
19,CCOCCOC(=O)NCCCCCCNC(=O)OCCOCC,38.2 µg/mL
20,O=C(Cc1ccc(S(=O)(=O)N2CCCC2)s1)Nc1cccc([N+](=O)[O-])c1,20.7 µg/mL

row,SMILES,solubility kinetic
1,Cc1ccc(NC2=NCCCS2)cc1Cl,28.4 µg/mL
2,O=C(O)C(=O)O.c1ccc(CCNC2CCCCCC2)cc1,45.3 µg/mL
3,O=C(CN1C(=O)c2ccccc2C1=O)Nc1ccc(Cl)cn1,4.6 µg/mL
4,C=CCN(c1nc(C)cc(OC)n1)S(=O)(=O)c1ccccc1,19.4 µg/mL
5,Cc1cccc(NC(=O)CCn2c(=O)oc3ccccc32)c1,38.2 µg/mL
6,O=C(c1ccccn1)c1ccc2ccccc2n1,28.8 µg/mL
7,Cc1ccc(C)c(CSCC(=O)NCc2cccs2)c1,41.8 µg/mL
8,COc1ccccc1-c1ccc(/C=N/O)o1,3.9 µg/mL
9,CC(C)NC(=S)N(CCc1ccncc1)C(C)C,27.4 µg/mL
10,C=CCc1ccc(OCCCNC2CCCC2)c(OC)c1,35.6 µg/mL
11,Cc1ccccc1NC(=O)COc1ccc2c(c1)OC(C)(C)CC2=O,< 0.7 µg/mL
12,COc1cc2nc(Nc3ccc(F)cc3)nc(N)c2cc1OC.Cl,> 52.6 µg/mL
13,CN(C)c1ccc(/C=N/O)cc1,> 24.6 µg/mL
14,O=CC1=C(N2CCOCC2)/C(=C\c2ccccc2)CC1,32.2 µg/mL
15,Cc1nonc1NC(=O)CSc1nc2ccc(Cl)cc2[nH]1,36.4 µg/mL
16,Cc1ccc2nc(SC(C)C(=O)N3CC(C)OC(C)C3)[nH]c2c1 (stereo not given),49.4 µg/mL
17,Cc1ccc(-c2nc(N)sc2C)cc1,30.2 µg/mL
18,COc1cccc2[nH]c3c(=O)n(CCCN4CCOCC4)cnc3c12,> 51.4 µg/mL
19,COc1ccc(N(CC(=O)N2CCCC2)S(C)(=O)=O)cc1,34.5 µg/mL
20,O=S(=O)(Nc1cccc(S(=O)(=O)N2CCCCC2)c1)c1ccc(Cl)s1,> 63.1 µg/mL
